In ChEMBL document CHEMBL5724914, “Linking interpersonal differences in gut microbiota composition and drug biotransformation activity” (2024):

Experiments:
[1] = (§1) The drug is tested on WLS-086 corresponding to human gut metagenome with ENA study accession number: PRJEB37062 and ENA sample accession number: ERS12561752 for biotransformation under anaerobic condition. The drug concentrations were measured over 9 timepoints collected between 0 and 24 hours of incubation by liquid-chromatography-coupled mass spectrometry (LC–MS); conditions: 2 µM
[2] = as §1, with “Z-011” for “WLS-086”, “mouse” for “human”, “ERS12561811” for “ERS12561752”; conditions: 2 µM
[3] = human gut metagenome, 24 h, 2 µM
[4] = human gut metagenome, 24 h, 2 µM; remark: listed apart in the source
[5] = as §1, with “Z-025” for “WLS-086”, “rabbit” for “human”, “ERS12561824” for “ERS12561752”; conditions: 2 µM
[6] = as §1, with “Z-013” for “WLS-086”, “rabbit” for “human”, “ERS12561813” for “ERS12561752”; conditions: 2 µM
[7] = human gut metagenome, 24 h, 2 µM; remark: listed apart in the source
[8] = human gut metagenome, 24 h, 2 µM; remark: listed apart in the source
[9] = as §1, with “WLS-310” for “WLS-086”, “ERS12561785” for “ERS12561752”; conditions: 2 µM
[10] = as §1, with “Z-012” for “WLS-086”, “to” for “to human gut”, “ERS12561812” for “ERS12561752”; conditions: 2 µM
[11] = as §1, with “Z-017” for “WLS-086”, “mouse” for “human”, “ERS12561816” for “ERS12561752”; conditions: 2 µM
[12] = human gut metagenome, 24 h, 2 µM; remark: listed apart in the source
[13] = human gut metagenome, 24 h, 2 µM; remark: listed apart in the source
[14] = as §1, with “Z-004” for “WLS-086”, “to” for “to human gut”, “ERS12561804” for “ERS12561752”; conditions: 2 µM
[15] = as §1, with “WLS-240” for “WLS-086”, “ERS12561773” for “ERS12561752”; conditions: 2 µM
[16] = as §1, with “Z-028” for “WLS-086”, “mouse” for “human”, “ERS12561827” for “ERS12561752”; conditions: 2 µM
[17] = as §1, with “Z-022” for “WLS-086”, “mouse” for “human”, “ERS12561821” for “ERS12561752”; conditions: 2 µM
[18] = human gut metagenome, 24 h, 2 µM; remark: listed apart in the source
[19] = as §1, with “Z-006” for “WLS-086”, “mouse” for “human”, “ERS12561806” for “ERS12561752”; conditions: 2 µM
[20] = as §1, with “WLS-038” for “WLS-086”, “ERS12561745” for “ERS12561752”; conditions: 2 µM
Also: call rule not given here.

For `Nc1nc(NC2CC2)c2ncn([C@H]3C=C[C@@H](CO)C3)c2n1.Nc1nc(NC2CC2)c2ncn([C@H]3C=C[C@@H](CO)C3)c2n1.O=S(=O)(O)O` [ABACAVIR SULFATE], the “Bacterial Biotransformation” value [1] was “Compound metabolized”, the “Bacterial Biotransformation” value [2] was “Compound metabolized” and the “Bacterial Biotransformation” value [3] was “Compound metabolized”. The “Bacterial Biotransformation” value [4] was “Compound metabolized”, the “Bacterial Biotransformation” value [5] was “Compound NOT metabolized” and the “Bacterial Biotransformation” value [6] was “Compound NOT metabolized”. For the same molecule, the “Bacterial Biotransformation” value [7] was “Compound metabolized”, the “Bacterial Biotransformation” value [8] was “Compound NOT metabolized” and the “Bacterial Biotransformation” value [9] was “Compound NOT metabolized”. The “Bacterial Biotransformation” value [10] was “Compound NOT metabolized”, the “Bacterial Biotransformation” value [11] was “Compound NOT metabolized” and the “Bacterial Biotransformation” value [12] was “Compound metabolized”. The “Bacterial Biotransformation” value [13] was “Compound metabolized”, the “Bacterial Biotransformation” value [14] was “Compound metabolized” and the “Bacterial Biotransformation” value [15] was “Compound metabolized”. For the same molecule, the “Bacterial Biotransformation” value [16] was “Compound NOT metabolized”, the “Bacterial Biotransformation” value [17] was “Compound metabolized” and the “Bacterial Biotransformation” value [18] was “Compound metabolized”. The “Bacterial Biotransformation” value [19] was “Compound NOT metabolized” and the “Bacterial Biotransformation” value [20] was “Compound NOT metabolized”.
For `CC1Cc2ccccc2N1NC(=O)c1ccc(Cl)c(S(N)(=O)=O)c1` (stereo not given) [INDAPAMIDE], the “Bacterial Biotransformation” value [1] was “Compound NOT metabolized”, the “Bacterial Biotransformation” value [2] was “Compound NOT metabolized” and the “Bacterial Biotransformation” value [3] was “Compound NOT metabolized”. The “Bacterial Biotransformation” value [4] was “Compound NOT metabolized”, the “Bacterial Biotransformation” value [5] was “Compound NOT metabolized” and the “Bacterial Biotransformation” value [6] was “Compound NOT metabolized”. For the same molecule, the “Bacterial Biotransformation” value [7] was “Compound NOT metabolized”, the “Bacterial Biotransformation” value [8] was “Compound NOT metabolized” and the “Bacterial Biotransformation” value [9] was “Compound NOT metabolized”. For the same molecule, the “Bacterial Biotransformation” value [10] was “Compound NOT metabolized”, the “Bacterial Biotransformation” value [11] was “Compound NOT metabolized” and the “Bacterial Biotransformation” value [12] was “Compound NOT metabolized”. The “Bacterial Biotransformation” value [13] was “Compound NOT metabolized”, the “Bacterial Biotransformation” value [14] was “Compound NOT metabolized” and the “Bacterial Biotransformation” value [15] was “Compound NOT metabolized”. The “Bacterial Biotransformation” value [16] was “Compound NOT metabolized”, the “Bacterial Biotransformation” value [17] was “Compound NOT metabolized” and the “Bacterial Biotransformation” value [18] was “Compound NOT metabolized”. The “Bacterial Biotransformation” value [19] was “Compound NOT metabolized” and the “Bacterial Biotransformation” value [20] was “Compound NOT metabolized”.
With `O=P1(N(CCCl)CCCl)NCCCO1` (stereo not given) [CYCLOPHOSPHAMIDE ANHYDROUS] the “Bacterial Biotransformation” value [1] was “Compound metabolized”, the “Bacterial Biotransformation” value [2] was “Compound NOT metabolized” and the “Bacterial Biotransformation” value [3] was “Compound NOT metabolized”. The “Bacterial Biotransformation” value [4] was “Compound metabolized”, the “Bacterial Biotransformation” value [5] was “Compound NOT metabolized” and the “Bacterial Biotransformation” value [6] was “Compound NOT metabolized”. The “Bacterial Biotransformation” value [7] was “Compound metabolized”, the “Bacterial Biotransformation” value [8] was “Compound NOT metabolized” and the “Bacterial Biotransformation” value [9] was “Compound metabolized”. The “Bacterial Biotransformation” value [10] was “Compound NOT metabolized”, the “Bacterial Biotransformation” value [11] was “Compound NOT metabolized” and the “Bacterial Biotransformation” value [12] was “Compound metabolized”. The “Bacterial Biotransformation” value [13] was “Compound NOT metabolized”, the “Bacterial Biotransformation” value [14] was “Compound metabolized” and the “Bacterial Biotransformation” value [15] was “Compound metabolized”. The “Bacterial Biotransformation” value [16] was “Compound NOT metabolized”, the “Bacterial Biotransformation” value [17] was “Compound NOT metabolized” and the “Bacterial Biotransformation” value [18] was “Compound NOT metabolized”. The “Bacterial Biotransformation” value [19] was “Compound NOT metabolized” and the “Bacterial Biotransformation” value [20] was “Compound NOT metabolized”.
In the case of `CN(C)CCOC(C)(c1ccccc1)c1ccccn1.O=C(O)CCC(=O)O` (stereo not given) [DOXYLAMINE SUCCINATE], the “Bacterial Biotransformation” value [1] is reported as “Compound NOT metabolized”, the “Bacterial Biotransformation” value [2] is reported as “Compound NOT metabolized” and the “Bacterial Biotransformation” value [3] is reported as “Compound NOT metabolized”. The “Bacterial Biotransformation” value [4] was “Compound NOT metabolized”, the “Bacterial Biotransformation” value [5] was “Compound NOT metabolized” and the “Bacterial Biotransformation” value [6] was “Compound NOT metabolized”. The “Bacterial Biotransformation” value [7] was “Compound NOT metabolized”, the “Bacterial Biotransformation” value [8] was “Compound NOT metabolized” and the “Bacterial Biotransformation” value [9] was “Compound NOT metabolized”. The “Bacterial Biotransformation” value [10] was “Compound NOT metabolized”, the “Bacterial Biotransformation” value [11] was “Compound NOT metabolized” and the “Bacterial Biotransformation” value [12] was “Compound NOT metabolized”. The “Bacterial Biotransformation” value [13] was “Compound NOT metabolized”, the “Bacterial Biotransformation” value [14] was “Compound NOT metabolized” and the “Bacterial Biotransformation” value [15] was “Compound NOT metabolized”. For the same molecule, the “Bacterial Biotransformation” value [16] was “Compound NOT metabolized”, the “Bacterial Biotransformation” value [17] was “Compound NOT metabolized” and the “Bacterial Biotransformation” value [18] was “Compound NOT metabolized”. The “Bacterial Biotransformation” value [19] was “Compound NOT metabolized” and the “Bacterial Biotransformation” value [20] was “Compound NOT metabolized”.
In the case of `CN1CCN2c3ccccc3Cc3ccccc3C2C1` (stereo not given) [MIANSERIN], the “Bacterial Biotransformation” value [1] is reported as “Compound metabolized”, the “Bacterial Biotransformation” value [2] is reported as “Compound metabolized” and the “Bacterial Biotransformation” value [3] is reported as “Compound NOT metabolized”. The “Bacterial Biotransformation” value [4] was “Compound NOT metabolized”, the “Bacterial Biotransformation” value [5] was “Compound metabolized” and the “Bacterial Biotransformation” value [6] was “Compound NOT metabolized”. The “Bacterial Biotransformation” value [7] was “Compound metabolized”, the “Bacterial Biotransformation” value [8] was “Compound metabolized” and the “Bacterial Biotransformation” value [9] was “Compound NOT metabolized”. The “Bacterial Biotransformation” value [10] was “Compound NOT metabolized”, the “Bacterial Biotransformation” value [11] was “Compound NOT metabolized” and the “Bacterial Biotransformation” value [12] was “Compound NOT metabolized”. For the same molecule, the “Bacterial Biotransformation” value [13] was “Compound NOT metabolized”, the “Bacterial Biotransformation” value [14] was “Compound NOT metabolized” and the “Bacterial Biotransformation” value [15] was “Compound NOT metabolized”. For the same molecule, the “Bacterial Biotransformation” value [16] was “Compound NOT metabolized”, the “Bacterial Biotransformation” value [17] was “Compound metabolized” and the “Bacterial Biotransformation” value [18] was “Compound NOT metabolized”. For the same molecule, the “Bacterial Biotransformation” value [19] was “Compound NOT metabolized” and the “Bacterial Biotransformation” value [20] was “Compound NOT metabolized”.
